Measurements reported in patent US10933052B2, “Compositions and methods for the treatment of eye disorders” (Cellix Bio Private Limited, priority 2017, dated 2021).

Assay: Ocular pharmacokinetic study of CLX-156 formulation, topical administration in each eye
Format: in vivo, male New Zealand white rabbits
Conditions: rabbit, topical 50 μL in each eye
Experimental: A pharmacokinetics study was conducted on male New Zealand white rabbits to evaluate the ocular pharmacokinetics of CLX-156 (Pilocarpine-(R)-Lipoate) formulation. Animals were topically administered with 50 μL of CLX-156 in each eye, and the aqueous humour and blood samples were collected followed by sacrifice of the animals for collection of lens, cornea and iris region at a pre-determined time.
The aqueous humour and tissue concentration of Pilocarpine and (R)-Lipoic acid were measured at 0.5 h, 1 h, 2 h, 4 h and 8 h in 3 animals/time point/group (as provided in Table 2 and Table 3 hereinbelow). Further, (R)-Lipoic acid concentration was measured in the lens region, and Pilocarpine concentration was measured in iris region of each of the treated animals (as provided in Table 2 and Table 3). All the samples were analyzed using LCMS-MS by a fit for purpose method.

[1] = analyte (R)-Lipoic acid, aqueous humour
[2] = analyte (R)-Lipoic acid, lens region
[3] = analyte Pilocarpine, aqueous humour
[4] = analyte Pilocarpine, iris region

With “5-(((3R,4S)-4-ethyl-5-oxotetrahydro furan-3-yl)methyl)-1-methyl-1H-imidazol-1-ium (R)-5-(1,2-dithiolan-3-yl)pentanoate [CLX-156]” as the substance, how does the “AUClast, (R)-Lipoic acid in aqueous humour” value [1] read?
The value was 17271 ng·h/mL.

What about the “Cmax, concentration of (R)-Lipoic acid in aqueous humour” value [1] of the same substance?
The value was 21067 ng/mL.

What about the “Tmax, (R)-Lipoic acid in aqueous humour” value [1] of the same substance?
Its value is 30 min.

And the “AUClast, (R)-Lipoic acid in lens region” value [2]?
The value was 0.364 µg·h/g.

And the “Tmax, (R)-Lipoic acid in lens region” value [2]?
Its value is 30 min.

And the “AUClast, Pilocarpine in aqueous humour” value [3]?
Its value is 6359 ng·h/mL.

What about the “Cmax, concentration of Pilocarpine in aqueous humour” value [3] of the same substance?
Its value is 6480 ng/mL.

What about the “Tmax, Pilocarpine in aqueous humour” value [3] of the same substance?
Its value is 30 min.

What about the “time up to which pilocarpine was detectable in aqueous humour” value [3] of the same substance?
Its value is “up to 4 h”.

And the “AUClast, Pilocarpine in iris region” value [4]?
Its value is 1.491 µg·h/g.

And the “Tmax, Pilocarpine in iris region” value [4]?
Its value is 30 min.

And the “time up to which pilocarpine was detectable in iris region” value [4]?
The value was “up to 2 h”.
